Source: publication PMC12019328, “Discovery of an ApoE4-targeted small-molecule SirT1 enhancer for the treatment of Alzheimer’s disease” (Scientific Reports, 2025)
“Also recorded” adds a separate entry of the source.

Assays:
[1] = system: SirT1 mRNA in Kelly cells; assay: SirT1 mRNA in Kelly neuroblastoma cells; type: cell-based, human; conditions: 5 µM, 24 h, vs DMSO control
Procedure: (§1) Human neuroblastoma ‘Kelly’ cells (genotype APOE3/APOE4) were plated in 96-well plates at 50K cells per well and were grown overnight in RPMI 1640 supplemented with 2 mM Glutamine, 10% FBS and 1% Pen-Strep. Cells were treated with 5 µM DDL-214, -218, or -219; or DMSO vehicle (n = 8 per compound). Twenty-four hours later, medium was removed, cells washed and lysed as described above for N2a-E4 cells.
(§2) Total RNA was isolated from cells or brain tissue (Qiagen RNEasy kit). Total RNA (0.5–1.0 µg) mRNA was then converted to cDNA (SuperScript™ III First-Strand Synthesis SuperMix kit; Thermo Fisher), and gene mRNA levels were measured using a gene-specific qRT-PCR Taqman assays (Thermo Fisher). Gene mRNA levels were normalized to GAPDH mRNA levels measured either in the same cDNA sample or in the same qPCR reaction using multiplexing of gene-of-interest/VIC and GAPDH/FAM, normalized by the delta-delta-Ct method.

[2] = system: NFYb mRNA in Kelly cells; assay: NFYb mRNA in Kelly neuroblastoma cells; type: cell-based, human; conditions: 5 µM, 24 h, vs DMSO
Procedure: as §1, §2

[3] = biological target: T1, protein arginine methyltransferase (PRMT) (Homo sapiens, UniProt Q86X55); assay: Affinity purification and STRING analysis-based proteomics with SH-SY5Y cell lysates; type: binding; conditions: compound clicked to agarose magnetic beads
T1 construct: proteins from human neuroblastoma SH-SY5Y; endogenous in cells; host or cells: SH-SY5Y human neuroblastoma cell lysate
T1 sequence (Q86X55 1-608): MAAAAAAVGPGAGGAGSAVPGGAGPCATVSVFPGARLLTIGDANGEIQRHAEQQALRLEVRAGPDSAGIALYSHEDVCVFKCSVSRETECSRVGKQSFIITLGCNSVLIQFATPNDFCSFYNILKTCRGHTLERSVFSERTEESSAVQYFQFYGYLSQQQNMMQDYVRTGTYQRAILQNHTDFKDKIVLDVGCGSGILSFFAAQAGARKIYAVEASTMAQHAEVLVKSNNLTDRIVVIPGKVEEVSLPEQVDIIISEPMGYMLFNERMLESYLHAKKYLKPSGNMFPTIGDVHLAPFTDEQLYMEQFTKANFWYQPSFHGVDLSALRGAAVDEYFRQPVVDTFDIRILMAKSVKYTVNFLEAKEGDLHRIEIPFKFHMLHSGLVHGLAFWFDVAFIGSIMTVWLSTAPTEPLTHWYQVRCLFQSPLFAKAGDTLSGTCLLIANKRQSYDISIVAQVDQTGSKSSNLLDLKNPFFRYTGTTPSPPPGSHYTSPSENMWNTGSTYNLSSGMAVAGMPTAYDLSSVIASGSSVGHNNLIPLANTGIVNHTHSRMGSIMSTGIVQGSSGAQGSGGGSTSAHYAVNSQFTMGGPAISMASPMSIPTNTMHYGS
Procedure: To assist in identification of possible protein interactions of our SirT1 enhancers, affinity purification and STRING analysis-based proteomics was used, as described in Supplementary Methods. […] To assess effects of various PRMTs 1, 4, 5, 7 and 8 on SirT1, N2a-E4 cells were transfected with each of these PRMTs as described in Supplementary Methods. […]
supernatants were transferred to new tubes and lyophilized. Samples were reconstituted in 100 µL of 50/50/0.1 (Water/Acetonitrile/Formic Acid) prior to analysis via liquid chromatography-tandem mass spectrometry (LC-MS/MS).
Normalized chromatographic peak areas was plotted at each time point and the half-life (T1/2) of compound in liver microsomes was determined by using the trendline equation to calculate the time at which compound abundance was 50% of that at timepoint 0 (T0).
Kinetic solubility was assessed by separately diluting a test compound solution (10 mM, 100% DMSO) into the aqueous buffer (PBS pH 7.4) and DMSO at 100 μM, 100 μL total volume.
The solutions were then incubated at 37°C for 90 min and centrifuged (16000xg, 5 min). An aliquot (50 µL) of each supernatant was analyzed by LC-MS/MS.
Five standard concentrations (100, 10, 1, 0.1, and 0, DMSO) in duplicates were incubated at 37°C for 90 min and centrifuged (16000xg, 5 min). Aliquots (50 µL) of supernatant were analyzed by LC-MS/MS to create the standard curve.
Table S2. […]

Row | SMILES | SirT1 mRNA [1] | NFYb mRNA [2] | protein interaction found by affinity purification [3]
1 | CC(N)C(=O)OC(C)(C)Cc1ccncc1 (stereo not drawn) [DDL-218] | greatest increase; also recorded: significantly increased SirT1 mRNA | significantly increases NFYb mRNA | 
2 | C#Cc1ccc(CC(C)(C)NC(=O)[C@H](C)N)cc1 [DDL-220] |  |  | a protein arginine methyltransferase (PRMT) interacts with DDL-220
